± gives the standard deviation of the averaged measurements.
Columns and labels:
[1] = compound: CNCc1ccc(-c2[nH]c3cc(F)cc4c3c2CCNC4=O)cc1; assay: surviving fraction relative to DMSO-only wells; higher = less growth inhibition; conditions: exposure time: 5 days
Procedure, shortened: (§1)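 For each tumour cell line, log-phase cells were put into 384-well plates at 250–500 cells per well, then after 24 hours exposed continuously for five days to inhibitors at 0.5, 1, 5, 10, 50, 100, 500 and 1000 nM. Viability was assessed by CellTiter-Glo luminescence, with surviving fraction expressed relative to the median of DMSO-only wells. Lines were screened three times and retained only if replicate Pearson r exceeded 0.7 and median Z' exceeded 0.3.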

FORETINIB = compound: COc1cc2c(Oc3ccc(NC(=O)C4(C(=O)Nc5ccc(F)cc5)CC4)cc3F)ccnc2cc1OCCCN1CCOCC1 [FORETINIB]; assay: as above; conditions: exposure time: 5 days
Procedure, shortened: as §1

Row | Test System | surviving fraction ([1]; 0.5 nM) | surviving fraction ([1]; 1 nM) | surviving fraction ([1]; 5 nM) | surviving fraction ([1]; 10 nM) | surviving fraction ([1]; 50 nM) | surviving fraction ([1]; 100 nM) | surviving fraction ([1]; 500 nM) | surviving fraction ([1]; 1000 nM) | surviving fraction (FORETINIB; 0.5 nM) | surviving fraction (FORETINIB; 1 nM) | surviving fraction (FORETINIB; 5 nM) | surviving fraction (FORETINIB; 10 nM) | surviving fraction (FORETINIB; 50 nM) | surviving fraction (FORETINIB; 100 nM) | surviving fraction (FORETINIB; 500 nM) | surviving fraction (FORETINIB; 1000 nM)
1 | 22RV1 PROSTATE | 1.09 ± 0.051 | 1.13 ± 0.09 | 1.02 ± 0.075 | 0.968 ± 0.12 | 1.28 ± 0.32 | 1.04 ± 0.061 | 1.014 ± 0.0031 | 1.11 ± 0.24 | 1.02 ± 0.065 | 1.04 ± 0.033 | 0.98 ± 0.15 | 0.984 ± 0.043 | 0.965 ± 0.12 | 0.99 ± 0.17 | 0.611 ± 0.061 | 0.511 ± 0.015
2 | 93VU HEADNECK | 0.958 ± 0.074 | 0.994 ± 0.09 | 1.08 ± 0.081 | 1.01 ± 0.028 | 0.892 ± 0.07 | 0.859 ± 0.063 | 0.927 ± 0.04 | 0.894 ± 0.036 | 1.21 ± 0.1 | 1.21 ± 0.048 | 1.2 ± 0.13 | 1.07 ± 0.039 | 1.04 ± 0.024 | 1.04 ± 0.025 | 0.849 ± 0.13 | 0.224 ± 0.076
3 | 143B BONE | 1.02 ± 0.037 | 1.04 ± 0.011 | 1.07 ± 0.037 | 1.1 ± 0.073 | 1.11 ± 0.14 | 1.04 ± 0.046 | 1.07 ± 0.15 | 1.04 ± 0.067 | 1.05 ± 0.046 | 1.03 ± 0.033 | 1.04 ± 0.015 | 1.02 ± 0.05 | 1.01 ± 0.0099 | 1.038 ± 0.0035 | 0.86 ± 0.015 | 0.755 ± 0.03
4 | A549 LUNG | 1.1 ± 0.039 | 1.07 ± 0.03 | 1.057 ± 0.0071 | 1.06 ± 0.029 | 1.14 ± 0.066 | 1.05 ± 0.06 | 1.08 ± 0.027 | 1.08 ± 0.034 | 1.083 ± 0.0085 | 1.1 ± 0.018 | 1.08 ± 0.028 | 1.05 ± 0.016 | 1.06 ± 0.045 | 1.06 ± 0.041 | 0.703 ± 0.012 | 0.542 ± 0.021
5 | ASKA SYNOVIAL | 1.1 ± 0.024 | 1.04 ± 0.072 | 1.04 ± 0.07 | 0.987 ± 0.017 | 0.887 ± 0.053 | 0.72 ± 0.019 | 0.653 ± 0.1 | 0.585 ± 0.057 | 1.11 ± 0.065 | 1.14 ± 0.037 | 1.06 ± 0.085 | 1.07 ± 0.075 | 1.13 ± 0.042 | 1.03 ± 0.044 | 0.371 ± 0.026 | 0.297 ± 0.0071

From the supplement of paper PMC6045584
